Reference: ChEMBL document CHEMBL5214948, “Boronic Acid: A Novel Pharmacophore Targeting Src Homology 2 (SH2) Domain of STAT3” (J Med Chem, 2022)
Activity calls are given as the source filed them. The rule behind the calls is not given here.

How the values were obtained:
[1] = Antiproliferative activity against […] H9c2 cells assessed as reduction in cell viability incubated for 72 hrs by CCK-8 assay; type: toxicity, cell-based; settings: rat
[2] = target: T1, Signal transducer and activator of transcription 3 (Homo sapiens, UniProt P40763); test: Inhibition of STAT3 transcriptional activity transfected in HEK293T cells at 3 to 5 uM incubated for 24 hrs by dual-ludferase reporter gene assay; type: cell-based; settings: dose 3-5 µM
T1 sequence (P40763 whole entry): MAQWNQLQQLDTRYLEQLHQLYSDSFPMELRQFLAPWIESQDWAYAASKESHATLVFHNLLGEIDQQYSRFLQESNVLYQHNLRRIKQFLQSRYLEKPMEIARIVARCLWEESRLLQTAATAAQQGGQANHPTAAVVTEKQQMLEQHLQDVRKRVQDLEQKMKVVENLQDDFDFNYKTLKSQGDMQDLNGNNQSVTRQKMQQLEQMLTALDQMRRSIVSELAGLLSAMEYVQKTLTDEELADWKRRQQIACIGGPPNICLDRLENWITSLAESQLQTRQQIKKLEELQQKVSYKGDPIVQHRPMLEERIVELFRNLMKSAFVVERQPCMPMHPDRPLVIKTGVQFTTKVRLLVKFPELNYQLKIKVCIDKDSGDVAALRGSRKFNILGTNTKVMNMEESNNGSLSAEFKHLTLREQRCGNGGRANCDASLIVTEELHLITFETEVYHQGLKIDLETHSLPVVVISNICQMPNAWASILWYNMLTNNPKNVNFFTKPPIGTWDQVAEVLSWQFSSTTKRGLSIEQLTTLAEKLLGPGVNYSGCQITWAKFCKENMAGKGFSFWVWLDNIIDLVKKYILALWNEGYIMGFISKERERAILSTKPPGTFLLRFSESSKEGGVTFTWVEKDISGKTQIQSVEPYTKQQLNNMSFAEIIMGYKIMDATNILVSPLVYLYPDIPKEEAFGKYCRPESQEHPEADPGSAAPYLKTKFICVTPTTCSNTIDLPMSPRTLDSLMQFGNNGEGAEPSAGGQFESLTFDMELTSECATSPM

MGC-803 [3] = test: Antiproliferative activity against human MGC-803 cells assessed as reduction in cell viability measured after 72 hrs by CCK-8 assay; type: functional, cell-based; settings: MGC-803, 72 h
[4] = target: T1, Signal transducer and activator of transcription 3; test: Binding affinity to full length wild type STAT3-SH2 domain (unknown origin) assessed as association constant by SPR analysis
MGC-803 [5] = test: Antitumor activity against human MGC-803 cells xenografted in BALB/c nude mouse assessed as tumor growth inhibition at 15 mg/kg, ip measured every day for 20 days; type: functional; design: scale not given: the % may be the effect or the level left; settings: time 20 day
MGC-803 [6] = test: Antiproliferative activity against human MGC-803 cells assessed as reduction in cell viability pretreated for 12 hrs followed by compound washout and measured after 24 hrs; type: functional, cell-based
MGC-803 [7] = test: Induction of apoptosis in human MGC-803 cells at 5 uM incubated for 72 hrs by V-FITC/PI staining based flow cytometry assay; type: functional
[8] = Toxicity in BALB/c nude mouse xenografted with MGC-803 cells assessed as effect on body weight at 5 mg/kg, ip measured every day for 20 days; type: organism-based; settings: in vivo, 480 h, time 20 day
[9] = target: T1, Signal transducer and activator of transcription 3; test: Binding affinity to full length wild type STAT3-SH2 domain (unknown origin) in human MGC-803 cells assessed as thermal stabilization of protein at 37 to 53 degreeC at 5 uM incubated for 3 hrs by cellular thermal shift assay; type: cell-based
[10] = Toxicity in BALB/c nude mouse xenografted with MGC-803 cells assessed as effect on body weight at 15 mg/kg, ip measured every day for 20 days; type: organism-based; settings: in vivo, 480 h, time 20 day
AGS [11] = test: Antiproliferative activity against human AGS cells assessed as reduction in cell viability incubated for 72 hrs by CCK-8 assay; type: functional, cell-based
AGS [12] = test: Induction of apoptosis in human AGS cells at 3 uM incubated for 72 hrs by V-FITC/PI staining based flow cytometry assay; type: functional

Compound: CN(CC(=O)N(Cc1ccc(C2CCCCC2)cc1)c1ccc(C(=O)O)cc1)S(=O)(=O)c1c(F)c(F)c(F)c(F)c1F
- IC50 at 72 h [1]: 10.2 µM
- inhibition [2]: Active
- IC50 (MGC-803 [3]): 8.51 µM
- Ka [4]: 3.02 10^3/M/s
- Activity (MGC-803 [5]): 49.05%
- Activity (MGC-803 [6]): Active
- Activity (MGC-803 [7]): 5.7%
- Activity [8]: Non-Toxic
- Activity [9]: Active
- Activity [10]: Non-Toxic
- IC50 (AGS [11]): 5.42 µM
- Activity (AGS [12]): 16.2%
